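Test compounds were applied to cells in 96-well plates for 48 hours at 5 doses. Abbreviation: GI50, concentration required for 50% inhibition of growth.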 Active and inactive are the calls of the source. Rule as the data show it: active = GI50 up to about 1.1 µM and inactive = higher.
How the values were obtained:
Assay in all cases: NCI anticancer screen, dose series, 48 h
A549 = system: A549
CAKI-1 = system: CAKI-1
DMS-114 = system: DMS-114
HCC 2998 = system: HCC 2998
HCT-15 = system: HCT-15
HL-60 = system: HL-60
KM12 = system: KM12
OVCAR-4 = system: OVCAR-4
OVCAR-5 = system: OVCAR-5
SF-268 = system: SF-268
SF-539 = system: SF-539
SK-MEL-28 = system: SK-MEL-28
SK-MEL-2 = system: SK-MEL-2
SK-OV-3 = system: SK-OV-3
SN12C = system: SN12C
U-251 = system: U-251
Malme-3M = system: Malme-3M
RXF 393 = system: RXF 393
DU-145 = system: DU-145
MDA-MB-231 = system: MDA-MB-231

SMILES	GI50 (A549)	GI50 (CAKI-1)	GI50 (DMS-114)	GI50 (HCC 2998)	GI50 (HCT-15)	GI50 (HL-60)	GI50 (KM12)	GI50 (OVCAR-4)	GI50 (OVCAR-5)	GI50 (SF-268)	GI50 (SF-539)	GI50 (SK-MEL-28)	GI50 (SK-MEL-2)	GI50 (SK-OV-3)	GI50 (SN12C)	GI50 (U-251)	GI50 (Malme-3M)	GI50 (RXF 393)	GI50 (DU-145)	GI50 (MDA-MB-231)
COC(=O)c1c/c(=N\NC(=O)CC(=O)Nc2ccccc2OC)c2ccccc2o1	74.8 µM (inactive)	> 100 µM (inactive)	> 100 µM (inactive)	93.1 µM (inactive)	> 100 µM	> 100 µM (inactive)	> 100 µM (inactive)	> 100 µM (inactive)	> 100 µM (inactive)	> 100 µM (inactive)	> 100 µM (inactive)	> 100 µM (inactive)	> 100 µM (inactive)	> 100 µM (inactive)	> 100 µM (inactive)	> 100 µM (inactive)	–	–	–	–
N=C(N)n1ncc(Cl)c(Cl)c1=O	17.1 µM (inactive)	1.81 µM (inactive)	1.85 µM (inactive)	–	1.87 µM	2.21 µM (inactive)	6.5 µM (inactive)	1.91 µM (inactive)	15.2 µM (inactive)	3.11 µM (inactive)	2.34 µM (inactive)	2.32 µM (inactive)	2.47 µM (inactive)	17.9 µM (inactive)	2.69 µM (inactive)	7.11 µM (inactive)	2.21 µM (inactive)	–	–	–
C/C(=N\Nc1ccc([N+](=O)[O-])cc1)C(=O)N(C)Nc1ccccc1	40.5 µM (inactive)	–	48 µM (inactive)	33.8 µM (inactive)	48.1 µM	65.3 µM (inactive)	24 µM (inactive)	47.2 µM (inactive)	–	–	76.4 µM (inactive)	–	29.1 µM (inactive)	> 100 µM (inactive)	74 µM (inactive)	62.1 µM (inactive)	–	58.1 µM (inactive)	–	–
CN(C)CCNc1ccc2ncn3c4ccccc4c(=O)c1c23	1.82 µM (inactive)	2.26 µM (inactive)	2.02 µM (inactive)	–	2.85 µM	7.73 µM (inactive)	2.44 µM (inactive)	1.99 µM (inactive)	1.66 µM (inactive)	1.91 µM (inactive)	3.62 µM (inactive)	3.93 µM (inactive)	2.99 µM (inactive)	2.09 µM (inactive)	2.9 µM (inactive)	3.02 µM (inactive)	2.34 µM (inactive)	–	–	–
O=C(Nc1ccc(Cl)c(Cl)c1)C1C(=O)N(c2ccc(Cl)c(Cl)c2)C(=O)/C1=N\O (stereo not drawn)	36.6 µM (inactive)	> 100 µM (inactive)	30.3 µM (inactive)	> 100 µM (inactive)	> 100 µM	–	–	70.1 µM (inactive)	> 100 µM (inactive)	> 100 µM (inactive)	> 100 µM (inactive)	25.6 µM (inactive)	> 100 µM (inactive)	> 100 µM (inactive)	61.8 µM (inactive)	66.8 µM (inactive)	> 100 µM (inactive)	–	–	–
CC12CCC[C@@](C)(C(=O)OC3OC(CO)C(O)C(O)C3O)[C@H]1CCC13CC4CC(OC4(CO)[C@H]1O)[C@@H]23 (stereo partly drawn)	> 100 µM (inactive)	> 100 µM (inactive)	24.9 µM (inactive)	> 100 µM (inactive)	53.7 µM	–	> 100 µM (inactive)	> 100 µM (inactive)	> 100 µM (inactive)	> 100 µM (inactive)	> 100 µM (inactive)	> 100 µM (inactive)	> 100 µM (inactive)	> 100 µM (inactive)	> 100 µM (inactive)	> 100 µM (inactive)	> 100 µM (inactive)	> 100 µM (inactive)	–	–
COC(=O)C(Cc1nc2ccccc2nc1O)C(NO)C(=O)Nc1c(Cl)cc([N+](=O)[O-])cc1Cl (stereo not drawn)	38.5 µM (inactive)	27.6 µM (inactive)	21.2 µM (inactive)	59.6 µM (inactive)	49.2 µM	–	33.7 µM (inactive)	38.5 µM (inactive)	–	32.8 µM (inactive)	22.8 µM (inactive)	30.9 µM (inactive)	32.1 µM (inactive)	37.9 µM (inactive)	45.3 µM (inactive)	31.3 µM (inactive)	47.5 µM (inactive)	16.5 µM (inactive)	–	–
O=C(CN(c1ccccc1)c1ccccc1)N1c2ccccc2C2C=CC=CC21 (stereo not drawn)	23.8 µM (inactive)	18.3 µM (inactive)	7.38 µM (inactive)	–	16.7 µM	7.23 µM (inactive)	27.3 µM (inactive)	11.1 µM (inactive)	24 µM (inactive)	26.5 µM (inactive)	18.8 µM (inactive)	30.4 µM (inactive)	18.1 µM (inactive)	23.6 µM (inactive)	8.34 µM (inactive)	21.3 µM (inactive)	21.6 µM (inactive)	30.5 µM (inactive)	–	–
CCOC(=O)C1N(S(=O)(=O)c2ccc(C)cc2)CCC12c1ccccc1N(C(C)=O)C2C(/C=C/C(=O)OC)=C/C(=O)OC (stereo not drawn)	84.1 µM (inactive)	> 100 µM (inactive)	> 100 µM (inactive)	> 100 µM (inactive)	–	66.8 µM (inactive)	> 100 µM (inactive)	> 100 µM (inactive)	> 100 µM (inactive)	> 100 µM (inactive)	> 100 µM (inactive)	> 100 µM (inactive)	–	> 100 µM (inactive)	> 100 µM (inactive)	> 100 µM (inactive)	> 100 µM (inactive)	> 100 µM (inactive)	–	–
N#Cc1ccc(OCCSCCCCCCCCCCSCCOc2ccc(C#N)cc2)cc1	> 100 µM (inactive)	–	1.29 µM (inactive)	> 100 µM (inactive)	> 100 µM	> 100 µM (inactive)	> 100 µM (inactive)	–	> 100 µM (inactive)	> 100 µM (inactive)	> 100 µM (inactive)	> 100 µM (inactive)	> 100 µM (inactive)	> 100 µM (inactive)	> 100 µM (inactive)	> 100 µM (inactive)	> 100 µM (inactive)	> 100 µM (inactive)	–	–
COC1(OC)CCCCC2c3cccc(OC(C)=O)c3C21OC(C)=O (stereo not drawn)	> 100 µM (inactive)	–	> 100 µM (inactive)	> 100 µM (inactive)	73.8 µM	65.8 µM (inactive)	> 100 µM (inactive)	> 100 µM (inactive)	> 100 µM (inactive)	> 100 µM (inactive)	> 100 µM (inactive)	> 100 µM (inactive)	> 100 µM (inactive)	> 100 µM (inactive)	> 100 µM (inactive)	–	> 100 µM (inactive)	–	–	–
C=CCO/N=C(\OC(=O)c1ccc([N+](=O)[O-])cc1)c1ccccc1	> 100 µM (inactive)	> 100 µM (inactive)	> 100 µM (inactive)	> 100 µM (inactive)	> 100 µM	–	> 100 µM (inactive)	> 100 µM (inactive)	> 100 µM (inactive)	> 100 µM (inactive)	> 100 µM (inactive)	> 100 µM (inactive)	> 100 µM (inactive)	> 100 µM (inactive)	> 100 µM (inactive)	> 100 µM (inactive)	> 100 µM (inactive)	–	–	–
Cc1nc(O)nc2nc3ccc(Cl)cc3c(NCCNCCO)c12	17.4 µM (inactive)	12.2 µM (inactive)	–	13.6 µM (inactive)	17.9 µM	90.4 µM (inactive)	10.8 µM (inactive)	12.4 µM (inactive)	13.2 µM (inactive)	10.1 µM (inactive)	7.16 µM (inactive)	17.5 µM (inactive)	14.9 µM (inactive)	11.4 µM (inactive)	7.18 µM (inactive)	8.73 µM (inactive)	15.2 µM (inactive)	14.6 µM (inactive)	16 µM (inactive)	11.7 µM (inactive)

Reference: ChEMBL document CHEMBL1201862, “PubChem BioAssay data set” (2004)
